The source made the active and inactive calls. No cut-off for these calls is given here.
Experiments:
neuronal = assay: (§1) Cell protective activity in human MC65 cells assessed as protection against amyloid beta precursor protein C99-induced neuronal cell death after 3 days by MTT assay; format: functional, cell-based
[1] = as §1; format: functional, cell-based; details: 72 h

CC(=O)Nc1nc2c(ncn2C[C@H](C)[C@H]2CCC3=Cc4c(cc(C)oc4=O)O[C@H]3C2)c(=O)[nH]1
Activity (neuronal): inactive

COc1ccc(Cn2c(C)cc3c(c2=O)C=C2CC[C@H]([C@@H](C)Cn4cnc(N)c5ncnc4-5)C[C@@H]2O3)cc1
EC50 [1]: 350 nM

C=C(Cn1cnc(N)c2ncnc1-2)[C@H]1CCC2=Cc3c(cc(C)oc3=O)O[C@H]2C1
EC50 [1]: 1950 nM

Cc1cc2c(c(=O)o1)C=C1CC[C@H]([C@@H](C)Cn3cnc4cnc(N)nc43)C[C@@H]1O2
EC50 [1]: 860 nM

C=C(C)[C@H]1CCC2=Cc3c(cc(C)n(Cc4ccc(OC)cc4)c3=O)O[C@H]2C1
EC50 [1]: 1250 nM

C=C(C)[C@H]1CCc2cc3c(=O)oc(C)cc3nc2C1
Activity (neuronal): inactive

Cc1cc2c(c(=O)o1)C=C1CC[C@H]([C@@H](C)Cn3cnc4c(N)ncnc43)C[C@@H]1O2
EC50 [1]: 3000 nM

Cc1cc2c(c(=O)o1)C=C1CC[C@H]([C@@H](C)Cn3ccc(N)nc3=O)C[C@@H]1O2
Activity (neuronal): inactive

C=C(C)[C@@H]1CCc2cnc3cc(C)oc(=O)c3c2C1
EC50 [1]: 2490 nM

Cc1cc2c(c(=O)o1)C=C1CC[C@H]([C@@H](C)Cn3cnc(N)c4ncnc3-4)C[C@@H]1O2
EC50 [1]: 310 nM

Cc1cc2c(c(=O)o1)C=C1CC[C@H]([C@@H](C)CSc3ncccn3)C[C@@H]1O2
EC50 [1]: 1380 nM

Cc1cc2c(c(=O)o1)C=C1CC[C@H]([C@@H](C)Cn3cnc4c(Cl)ncnc43)C[C@@H]1O2
EC50 [1]: 930 nM

Cc1cc2c(c(=O)o1)C=C1CC[C@H]([C@@H](C)Cn3cc(C)c(=O)[nH]c3=O)C[C@@H]1O2
EC50 [1]: 6920 nM

Cc1cc2c(c(=O)o1)C=C1CC[C@H]([C@@H](C)COc3nccc(N)n3)C[C@@H]1O2
EC50 [1]: 2940 nM

Cc1cc2c(c(=O)o1)C=C1CC[C@H]([C@@H](C)Cn3cc(C#N)c(N)n3)C[C@@H]1O2
EC50 [1]: 8300 nM
